Test results taken from US7977375B2, “Antibiotic and method of production thereof” (Helmholtz-Zentrum Für Infektionsforschung GmbH, priority 2004, dated 2011).
In brackets after ≈: the same amount, converted by molar mass.

Tests used:
E. faecalis VRAS E305 = assay: agar diffusion method, inhibition zone; assay type: cell-based, Enterococcus faecalis; settings: E. faecalis VRAS E305, MH agar, 18 hours at 37° C., per disk 10 μl crude extract, 50 μg macrolactin, 78 μg erythromycin, 30 μg vancomycin, 10 μg ampicillin
Experimental: (§1) The agar diffusion method employing Mueller-Hinton (MH) agar (Difco Laboratories) was used to determine effectiveness against bacteria and yeasts. Sterile paper disks (Schleicher & Schüell, Germany) were seeded with 10 μl crude extract or with a solution of purified macrolactin (final compound concentration on the disk 50 μg) and then placed on the surface of MH-agar plates that had been seeded beforehand with a suspension of overnight culture of the test microorganisms at a concentration of 10^5 cells/ml.

E. faecalis ATCC 29212 = assay: agar diffusion method, inhibition zone; assay type: cell-based, Enterococcus faecalis; settings: Enterococcus faecalis, ATCC29212; E. faecalis ATCC 29212; MH agar, 18 hours at 37° C.; per disk 10 μl crude extract, 50 μg macrolactin, 78 μg erythromycin, 30 μg vancomycin, 10 μg ampicillin
Experimental: as §1

[1] = tested on: Staphylococcus aureus MRSA 3; assay: kinetics of growth at sub-MIC concentrations (FIG. 1B); assay type: cell-based; settings: 1 or 4 μg/ml
Experimental: Investigation of the bacteriostatic activity of 7-O-malonyl macrolactin A required testing the effects of sub-MIC concentrations. […] 24 hours after treatment, the titre of viable cells was reduced by a factor of 100 as compared to the control without 7-O-malonyl macrolactin A.
• FIG. 1A y-axis: Log CFU (Colony Forming Units) Cells/ml • x-axis: Time (HRS) • FIG. 1B y-axis: Log CFU (Colony Forming Units) Cells/ml • x-axis: Time (HRS) • FIG. 1C: y-axis: Log CFU (Colony Forming Units) Cells/ml • x-axis: Time (HRS) • FIG. 1D: y-axis: Log CFU (Colony Forming Units) Cells/ml • x-axis: Time (HRS) • FIG. 1E: y-axis: Log CFU (Colony Forming Units) Cells/ml • x-axis: Time (HRS) • FIG. 1F: y-axis: Log CFU (Colony Forming Units) Cells/ml • x-axis: Time (HRS) • FIG. 5A: y-axis: % Inhibition • x-axis Concentration μg/ml • FIG. 5B: y-axis: % Inhibition • x-axis Concentration μg/ml

[2] = tested on: Candida parapsilosis DSM5784; assay: MIC / MBC in liquid culture; assay type: cell-based; settings: Lodderomyces parapsilosis, read-out: MIC (minimal inhibitory concentration)
E. faecium VRAR E315 = assay: MIC / MBC in liquid culture; assay type: cell-based, Enterococcus faecium; settings: E. faecium VRAR E315
[3] = tested on: L929 mouse fibroblast cells; assay: inhibition of proliferation, CyQUANT cell proliferation test; assay type: cell-based; settings: Mus musculus, L929, 120 h, 5 days
Experimental: (§2) The cytotoxicity of 7-O-malonyl macrolactin A was compared to that of 7-O-succinyl macrolactin A and macrolactin A in vitro with respect to the inhibition of the proliferation of L929 mouse fibroblast cells or the human epithelial cell line HeLa.
(§3) For the cell culture, the HeLa cells were cultivated in low-glucose DMEM medium (Gibco), and the L929 cells in high-glucose DMEM medium. Both were supplemented with 10% by volume foetal calf serum (Gibco) at 37° C. in an atmosphere containing 5% CO2. The cells were extracted from stock cultures by means of trypsinization with EDTA (HeLa) or without EDTA (L929), then counted and diluted to 2×10^5 cells/ml. For the tests, microtitre plates (Nunc.) comprising 96 depressions were plated out in serial dilution without or in the presence of the test compounds or methanol. Determination of morphological alterations of the cells was carried out by means of phase contrast microscopy after 1, 2 and 5 days incubation.
(§4) After 5 days cultivation, cell counts were determined by the CyQUANT cell proliferation test (Molecular Probes), which is a highly sensitive microtitre plate test based on fluorescence. The test employs the dye CyQUANT, which, by binding to cellular nucleic acids, enhances fluorescence, which can then be measured by fluorescein excitation. The emission of fluorescence by the dye-nucleic acid complex correlated linearly with the cell count. For test purposes, the residue was carefully removed after 5 days incubation, the cells washed with PBS (phosphate buffered saline solution), the buffer removed and the cells frozen at −80° C. For the test, the cells were thawed at ambient temperature and lysated in a buffered solution containing the dye CyQUANT, in accordance with manufacturer's instructions. Fluorescence was measured by means of a fluormetric microtitre-plate reader (Titertex Fluorskan II) (excitation at 480 nm, emission at 520 nm). The […] were used to calculate the percentage of cellular proliferation in medium both alone and in the presence of serial dilutions of methanol and the macrolactin compounds. […] Proliferation was measured by means of the fluorescence-based test CyQUANT for determining viable cell counts. Table 5 illustrates the relative inhibition of proliferation as compared to a control culture comprising fresh medium without the addition of a macrolactin.

[4] = tested on: human epithelial cell line HeLa; assay: as above; assay type: cell-based
Experimental: as §2, §3, §4

Burkholderia cepacia SCV = assay: electron microscopy of cell division (FIG. 4); assay type: cell-based; settings: 128 μg/ml, 4 hours shake culture
Experimental: FIG. 4 a) to c) are electron microscope photographs of Burkholderia cepacia SCV after 4 hours growth without antibiotic and d), e) and f) in the presence of 128 μg/ml 7-O-malonyl macrolactin A;
It is thought that 7-O-malonyl macrolactin A inhibits the division of bacterial cells, which interrupts the proliferation thereof.
The electron microscope photographs moreover elucidate the bacteriostatic effect of 7-O-malonyl macrolactin A against gram-negative bacteria, an example whereof is the cell division of Burkholderia cepacia. Thus, FIGS. 4a, b and c show Burkholderia cepacia SCV (clinical isolate) in a shake culture without the addition of antibiotic ingredients (control) and FIGS. 4d, e and f after 4 hours growth in a shake culture in the presence of 128 μg/ml 7-O-malonyl macrolactin A. In the control culture, white arrowheads point to the cell division planes and the transverse walls in connection therewith. In the case of the gram-negative cells treated with 7-O-malonyl macrolactin A, (FIGS. 4e and f) black arrows indicate the cell division planes and the unnatural protuberances.

MRSA 3 = assay: MIC / MBC in liquid culture; assay type: cell-based, Staphylococcus aureus; settings: MRSA 3

With `CC1CCC/C=C/C=C/C(O)CC(O)C/C=C\C=C\C(OC(=O)CC(=O)O)C/C=C/C=C\C(=O)O1` (stereo not shown) [7-O-malonyl macrolactin A] the Inhibition zone (E. faecalis VRAS E305) was “produced an inhibition zone”, the zone of inhibition at 50 µg/disc (E. faecalis VRAS E305; Enterococcus faecalis, VRASE305) was 15 mm and the zone of inhibition at 50 µg/disc (E. faecalis ATCC 29212) was 25 mm. The “titre of viable cells reduced by a factor, compared to control” value ([1]; 24 hours after treatment) was 100, the “effect on kinetics of growth” value ([1]; after 4 hours) was “almost completely inhibited” and the MIC [2] was 128 µg/mL (≈ 262 µM). For the same compound, the “MIC (minimal inhibitory concentration)” value (E. faecium VRAR E315) was over 128 µg/mL, the MBC (E. faecium VRAR E315; Enterococcus faecium, VRARE315, read-out: MBC (minimal bacteriostatic or fungistatic concentration)) was 4 µg/mL (≈ 8.19 µM) and the MIC (E. faecium VRAR E315; Enterococcus faecium, VRARE315, read-out: MIC (minimal inhibitory concentration)) was over 128 µg/mL. The inhibition at 3.9 µg/mL ([3]; compound concentration 3.9 μg/ml) was 0%, the inhibition at 7.8 µg/mL ([3]; compound concentration 7.8 μg/ml) was 0% and the inhibition at 15.6 µg/mL ([3]; compound concentration 15.6 μg/ml) was about 32%. It also gave an inhibition at 31.25 µg/mL ([3]; compound concentration 31.25 μg/ml) of 80%, an inhibition at 56.5 µg/mL ([3]; compound concentration 56.5 μg/ml) of 86% and an inhibition at 125 µg/mL ([3]; compound concentration 125 μg/ml) of 84%. The “Inhibition of proliferation” value ([4]; 62.5 μg/ml, CyQUANT test) was “practically complete inhibition of growth”, the inhibition at 3.9 µg/mL ([4]; Homo sapiens, 120 h, compound concentration 3.9 μg/ml, 5 days) was 0% and the inhibition at 7.8 µg/mL ([4]; Homo sapiens, 120 h, compound concentration 7.8 μg/ml, 5 days) was 0%. The inhibition at 15.6 µg/mL ([4]; Homo sapiens, 120 h, compound concentration 15.6 μg/ml, 5 days) was 0%, the inhibition at 31.25 µg/mL ([4]; Homo sapiens, 120 h, compound concentration 31.25 μg/ml, 5 days) was 62% and the inhibition at 56.5 µg/mL ([4]; Homo sapiens, 120 h, compound concentration 56.5 μg/ml, 5 days) was 93%. For the same compound, the inhibition at 125 µg/mL ([4]; Homo sapiens, 120 h, compound concentration 125 μg/ml, 5 days) was 100%, the Inhibition of proliferation ([4]; compound concentration 15.6 μg/ml, 5 days) was “failed to inhibit the proliferation” and the Inhibition of proliferation ([4]; compound concentration 31.25 μg/ml, 5 days) was “capable of inhibiting the proliferation”. For the same compound, the “effect on cell division, electron microscope” value (Burkholderia cepacia SCV) was “anomalously sized cells were also evident”, the “MIC (minimal inhibitory concentration)” value (MRSA 3) was over 128 µg/mL and the MBC (MRSA 3; Staphylococcus aureus, pronounced inhibition of growth, read-out: MBC (minimal bacteriostatic or fungistatic concentration)) was 4 µg/mL (≈ 8.19 µM). The MIC (MRSA 3; Staphylococcus aureus, read-out: MIC (minimal inhibitory concentration)) was over 128 µg/mL.
